Laboratory results taken from patent publication US11230538B2, “Herbicides” (SYNGENTA PARTICIPATIONS AG, priority 2016, dated 2022).

Assays:
Type in all cases: in vivo
[1] = tested on: Alopecurus myosuroides (ALOMY); assay: B1 Pre-emergence herbicidal activity; design: key: 5=total damage to plant; 0=no damage to plant; settings: pre-emergence application, rate 1000 g/ha, evaluated after 13 days
Outline: (§1)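 Pots of sown seeds were sprayed one day after sowing, pre-emergence, with compound in acetone/water (50:50) containing 0.5% Tween 20. Plants were grown in a glasshouse at 24/16 °C day/night, 14 h light and 65% humidity. Damage was scored after 13 days on a 0 (none) to 5 (total) scale.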

[2] = tested on: Triticum aestivium (TRZAW); assay: B1 Pre-emergence herbicidal activity; design: key: 5=total damage to plant; 0=no damage to plant; settings: pre-emergence application, rate 1000 g/ha, evaluated after 13 days
Outline: as §1

Avena fatua (AVEFA) [3] = assay: B1 Pre-emergence herbicidal activity; design: key: 5=total damage to plant; 0=no damage to plant; settings: pre-emergence application, rate 1000 g/ha, evaluated after 13 days
Outline: as §1

Avena fatua (AVEFA) [4] = assay: B2 Post-emergence herbicidal activity; settings: post-emergence application, rate 1000 g/ha, evaluated after 13 days
Outline: (§2)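 Plants grown 8 days in a glasshouse (24/16° C day/night, 14 h light, 65% humidity) were sprayed post-emergence with active ingredient formulated in acetone/water (50:50) containing 0.5% Tween 20. Damage was scored after 13 days on a 0–5 scale (5 = total damage).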

[5] = tested on: Echinochloa crus-galli (ECHCG); assay: B2 Post-emergence herbicidal activity; design: key to Post-emergence herbicidal activity, ECHCG (damage score 0-5): 5=total damage to plant; 0=no damage to plant; settings: post-emergence application, rate 1000 g/ha, evaluated after 13 days
Outline: as §2

[6] = tested on: Echinochloa crus-galli (ECHCG); assay: B1 Pre-emergence herbicidal activity; design: key to Pre-emergence herbicidal activity, ECHCG (damage score 0-5): 5=total damage to plant; 0=no damage to plant; settings: pre-emergence application, rate 1000 g/ha, evaluated after 13 days
Outline: as §1

Lolium perenne (LOLPE) [7] = assay: B1 Pre-emergence herbicidal activity; design: key to Pre-emergence herbicidal activity, LOLPE (damage score 0-5): 5=total damage to plant; 0=no damage to plant; settings: pre-emergence application, rate 1000 g/ha, evaluated after 13 days
Outline: as §1

Setaria fabenri (SETFA) = assay: B2 Post-emergence herbicidal activity; design: key: 5=total damage to plant; 0=no damage to plant; settings: post-emergence application, rate 1000 g/ha, evaluated after 13 days
Outline: as §2

[8] = tested on: Alopecurus myosuroides (ALOMY); assay: B2 Post-emergence herbicidal activity; design: key: 5=total damage to plant; 0=no damage to plant; settings: post-emergence application, rate 1000 g/ha, evaluated after 13 days
Outline: as §2

[9] = tested on: Triticum aestivium (TRZAW); assay: B2 Post-emergence herbicidal activity; design: key: 5=total damage to plant; 0=no damage to plant; settings: post-emergence application, rate 1000 g/ha, evaluated after 13 days
Outline: as §2

Setaria fabenr (SETFA) = assay: B1 Pre-emergence herbicidal activity; design: key to Pre-emergence herbicidal activity, SETFA (damage score 0-5): 5=total damage to plant; 0=no damage to plant; settings: pre-emergence application, rate 1000 g/ha, evaluated after 13 days
Outline: as §1

Lolium perenne (LOLPE) [10] = assay: B2 Post-emergence herbicidal activity; settings: post-emergence application, rate 1000 g/ha, evaluated after 13 days
Outline: as §2

Structure (SMILES)	Pre-emergence herbicidal activity, ALOMY (damage score 0-5) [1]	Pre-emergence herbicidal activity, TRAZW (damage score 0-5) [2]	Pre-emergence herbicidal activity, AVEFA (damage score 0-5) (Avena fatua (AVEFA) [3])	Post-emergence herbicidal activity, AVEFA (damage score 0-5) (Avena fatua (AVEFA) [4])	Post-emergence herbicidal activity, ECHCG (damage score 0-5) [5]	Pre-emergence herbicidal activity, ECHCG (damage score 0-5) [6]	Pre-emergence herbicidal activity, LOLPE (damage score 0-5) (Lolium perenne (LOLPE) [7])	Post-emergence herbicidal activity, SETFA (damage score 0-5) (Setaria fabenri (SETFA))	Post-emergence herbicidal activity, ALOMY (damage score 0-5) [8]	Post-emergence herbicidal activity, TRAZW (damage score 0-5) [9]	Pre-emergence herbicidal activity, SETFA (damage score 0-5) (Setaria fabenr (SETFA))	Post-emergence herbicidal activity, LOLPE (damage score 0-5) (Lolium perenne (LOLPE) [10])
CCC(=O)N(CCCN(CC)CC)c1ccc(-c2cncc(F)c2)nc1C(F)(F)F [Compound C95]	0	0	1	2	5	3	1	5	1	1	4	2
O=C(Nc1ccc(-c2cncc(F)c2)nc1C(F)(F)F)C1CCCC1 [Compound C111]	1	0	2	4	5	4	1	5	1	0	5	2
CC(C)=CC(=O)Nc1ccc(-c2cncc(F)c2)nc1C(F)(F)F [Compound C37]	0	0	1	3	5	4	1	5	0	0	5	2
O=C(CC(F)(F)F)Nc1ccc(-c2cncc(F)c2)nc1C(F)(F)F [Compound C56]	0	0	1	3	4	3	0	4	0	1	4	2
C=CCN(C(=O)CC)c1ccc(-c2cncc(F)c2)nc1C(F)(F)F [Compound C39]	0	0	2	3	5	4	1	5	0	1	5	2
O=C(O)CCC(=O)Nc1ccc(-c2cncc(F)c2)nc1C(F)(F)F [Compound C113, 4-[[6-(5-fluoro-3-pyridyl)-2-(trifluoromethyl)-3-pyridyl]amino]-4-oxo-butanoic acid]	0	0	2	4	5	5	1	5	1	3	5	3
COCCN(C(=O)C(C)C)c1ccc(-c2cncc(F)c2)nc1C(F)(F)F [Compound C85]	0	0	0	2	4	2	0	4	0	1	2	1
COCC(=O)N(CC1CC1)c1ccc(-c2cncc(F)c2)nc1C(F)(F)F [Compound C80]	0	0	1	2	3	2	0	5	1	1	3	1
CC(C)(C)C(=O)Nc1ccc(-c2cncc(F)c2)nc1C(F)(F)F [Compound C34]	0	0	0	3	4	2	0	5	1	1	5	2
CC(C)C(=O)Nc1ccc(-c2cncc(C#N)c2)nc1C(F)(F)F [Compound C11]	0	0	0	2	3	1	1	5	1	0	4	1
C=CCN(C(=O)C(C)C)c1ccc(-c2cncc(F)c2)nc1C(F)(F)F [Compound C16]	0	0	1	4	5	4	2	5	1	1	5	3
CCC(=O)N(C(=O)CC)c1ccc(-c2cncc(F)c2)nc1C(F)(F)F [Compound C44]	0	0	2	3	5	5	1	5	1	0	4	3
